Values after ≈ are worked out from the molar mass of the structure shown. Like-named read-outs stand apart in the source and are kept apart here.
Legend:
Format in all cases: cell-based
S. aureus MP-549 msrA = assay: microbe, parasite or virus in culture; conditions: Staphylococcus aureus, MP549MSRA
Summary of the method: (§1)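 Isolates other than streptococci and anaerobes, which had their own procedures, were grown overnight at 35° C on tryptic soy agar with 5% sheep blood. Suspensions were then diluted to a final inoculum of 5×10^5 CFU/mL in broth microdilution wells.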

E. coli armA = assay: microbe, parasite or virus in culture; conditions: Escherichia coli
Summary of the method: as §1

S. aureus BAA 977 iErmA = assay: microbe, parasite or virus in culture; conditions: Staphylococcus aureus
Summary of the method: as §1

E. coli ΔTolC = assay: microbe, parasite or virus in culture; conditions: Escherichia coli
Summary of the method: as §1

S. aureus hVISA = assay: MIC (broth microdilution or agar dilution, CLSI)
Summary of the method: as §1

S. pneumoniae ATCC 49619 = assay: MIC (broth microdilution or agar dilution, CLSI); conditions: Streptococcus pneumoniae
Summary of the method: as §1

E. faecalis ATCC 29212 = assay: MIC (broth microdilution or agar dilution, CLSI); conditions: Enterococcus faecalis, read-out: MIC
Summary of the method: as §1

[1] = tested on: E. faecalis MMX 847; cErmB; assay: MIC (broth microdilution or agar dilution, CLSI); conditions: Enterococcus faecalis, cErmB
Summary of the method: as §1

[2] = tested on: S. aureus ATCC BAA-1707 (MRSA); assay: MIC (broth microdilution or agar dilution, CLSI)
Summary of the method: as §1

S. aureus ATCC 29213 = assay: MIC (broth microdilution or agar dilution, CLSI); conditions: Staphylococcus aureus, ATCC29213, S. aureus HAV#001, ATCC 29213, MP-549; read-out: MIC
Summary of the method: as §1

[3] = tested on: S. pneumoniae MMX 3031 cMefA; assay: MIC (broth microdilution or agar dilution, CLSI); conditions: Streptococcus pneumoniae, MMX3031CMEFA, read-out: MIC
Summary of the method: as §1

K. oxytoca Clinical = assay: MIC (broth microdilution or agar dilution, CLSI)
Summary of the method: as §1

S. pneumoniae ATCC 6303 = assay: MIC (broth microdilution or agar dilution, CLSI)
Summary of the method: as §1

[4] = tested on: S. pyogenes MMX 946; cErmB; assay: MIC (broth microdilution or agar dilution, CLSI); conditions: Streptococcus pyogenes, cErmB
Summary of the method: as §1

S. aureus MMX 3035 cErmA = assay: MIC (broth microdilution or agar dilution, CLSI); conditions: Staphylococcus aureus, MMX3035CERMA, read-out: MIC
Summary of the method: as §1

K. pneumoniae ATCC 10031 = assay: MIC (broth microdilution or agar dilution, CLSI); conditions: Klebsiella pneumoniae, read-out: MIC
Summary of the method: as §1

E. coli LptD = assay: MIC (broth microdilution or agar dilution, CLSI); conditions: Escherichia coli, read-out: MIC
Summary of the method: as §1

E. coli ATCC 25922 = assay: MIC (broth microdilution or agar dilution, CLSI); conditions: Escherichia coli
Summary of the method: as §1

S. pyogenes ATCC 19615 = assay: MIC (broth microdilution or agar dilution, CLSI); conditions: Streptococcus pyogenes, read-out: MIC
Summary of the method: as §1

[5] = tested on: S. pneumoniae MMX 3028 cErmB; assay: MIC (broth microdilution or agar dilution, CLSI); conditions: Streptococcus pneumoniae, MMX3028CERMB
Summary of the method: as §1

S. aureus ATCC 700699 = assay: MIC (broth microdilution or agar dilution, CLSI); conditions: Staphylococcus aureus
Summary of the method: as §1

[6] = E. coli HAV#056, Clinical, armA
[7] = ATCC29212, E. faecalis HAV#005, ATCC 29212
[8] = Staphylococcus aureus, S. aureus HAV#016, ATCC BAA-1707, MRSA, read-out: MIC
[9] = S. pneumoniae HAV#034, MMX 3031, cMefA
[10] = Klebsiella oxytoca, K. oxytoca HAV#450, Clinical, read-out: MIC
[11] = Streptococcus pneumoniae, ATCC6303, S. pneumoniae HAV#351, ATCC 6303, read-out: MIC
[12] = S. pyogenes HAV#035, MMX 946, mac-resistant, read-out: MIC
[13] = ATCC25922, E. coli HAV#006, ATCC 25922, read-out: MIC
[14] = ATCC19615, S. pyogenes HAV#004, ATCC 19615
[15] = S. aureus HAV#032, MP-549, MSR(A)
[16] = ATCC49619, S. pneumoniae HAV#003, ATCC 49619, read-out: MIC

In the case of `CC[C@H]1OC(=O)[C@H](C)[C@@H](O[C@H]2C[C@@](C)(OC)[C@@H](O)[C@H](C)O2)[C@H](C)[C@@H](O[C@@H]2O[C@H](C)C[C@H](N(C)C)[C@H]2O)[C@](C)(O)C[C@@H](C)CN(C)[C@H](C)[C@@H](O)[C@]1(C)O` [Azithromycin], the MIC (S. aureus MP-549 msrA; S. aureus HAV#032, MP-549, MSR(A), read-out: MIC) is reported as > 64 µg/mL, the MIC (E. coli armA; [6]) is reported as 4 µg/mL (≈ 5.34 µM) and the MIC (S. aureus BAA 977 iErmA; BAA-977 / MRSA) is reported as > 64 µg/mL. For the same compound, the MIC (E. coli ΔTolC; E. coli HAV#038, ΔTolC) was 1 µg/mL (≈ 1.34 µM), the MIC (S. aureus hVISA; Staphylococcus aureus, S. aureus HAV#204, hVISA, read-out: MIC) was > 64 µg/mL and the MIC (S. pneumoniae ATCC 49619; ATCC49619) was 0.125 µg/mL (≈ 0.167 µM). The MIC (E. faecalis ATCC 29212; [7]) was 8 µg/mL (≈ 10.7 µM), the MIC ([1]; E. faecalis HAV#036, MMX 847, mac-resistant, read-out: MIC) was > 64 µg/mL and the MIC [2, 8] was 1 µg/mL (≈ 1.34 µM). For the same compound, the MIC (S. aureus ATCC 29213) was 1 µg/mL (≈ 1.34 µM), the MIC [3, 9] was 16 µg/mL (≈ 21.4 µM) and the MIC (K. oxytoca Clinical; [10]) was 16 µg/mL (≈ 21.4 µM). The MIC (S. pneumoniae ATCC 6303; [11]) was 2 µg/mL (≈ 2.67 µM), the MIC [4, 12] was > 64 µg/mL and the MIC (S. aureus MMX 3035 cErmA; S. aureus HAV#031, MMX 3035, cErmA) was > 64 µg/mL. The MIC (K. pneumoniae ATCC 10031; ATCC10031, K. pneumoniae HAV#008, ATCC 10031) was 4 µg/mL (≈ 5.34 µM), the MIC (E. coli LptD; E. coli HAV#040, LptD) was ≤ 0.03 µg/mL and the MIC (E. coli ATCC 25922; [13]) was 4 µg/mL (≈ 5.34 µM). The MIC (S. pyogenes ATCC 19615; [14]) was 0.06 µg/mL (≈ 0.0801 µM), the MIC ([5]; S. pneumoniae HAV#033, MMX 3028, cErmB, read-out: MIC) was > 64 µg/mL and the MIC (S. aureus ATCC 700699; S. aureus HAV#202, ATCC 700699 (VISA), read-out: MIC) was > 64 µg/mL.
`CO/N=C(\C(=O)N[C@@H]1C(=O)N2C(C(=O)O)=C(CSc3nc(=O)c(=O)[nH]n3C)CS[C@H]12)c1csc(N)n1` [Ceftriaxone] was tested, and the MIC (S. aureus MP-549 msrA; [15]) was > 128 µg/mL, the MIC (E. coli armA; [6]) was ≤ 0.06 µg/mL and the MIC (S. aureus BAA 977 iErmA; BAA-977 / MRSA) was 2 µg/mL (≈ 3.61 µM). The MIC (E. coli ΔTolC; E. coli HAV#038, ΔTolC) was ≤ 0.06 µg/mL, the MIC (S. pneumoniae ATCC 49619; [16]) was 0.06 µg/mL (≈ 0.108 µM) and the MIC [2, 8] was 64 µg/mL (≈ 115 µM). The MIC (S. aureus ATCC 29213) was 2 µg/mL (≈ 3.61 µM), the MIC (K. oxytoca Clinical; [10]) was 64 µg/mL (≈ 115 µM) and the MIC (S. pneumoniae ATCC 6303; [11]) was 0.06 µg/mL (≈ 0.108 µM). The MIC [4, 12] was ≤ 0.03 µg/mL, the MIC (E. coli LptD; E. coli HAV#040, LptD) was ≤ 0.06 µg/mL and the MIC (E. coli ATCC 25922; [13]) was 0.125 µg/mL (≈ 0.225 µM). The MIC (S. pyogenes ATCC 19615; [14]) was 0.06 µg/mL (≈ 0.108 µM) and the MIC (S. aureus ATCC 700699; ATCC 700699 / VISA) was > 128 µg/mL.
In the case of `CCC[C@@H]1C[C@@H](C(=O)N[C@@H]([C@H]2O[C@H](SC)[C@H](O)[C@@H](O)[C@H]2O)[C@H](C)Cl)N(C)C1` [Clindamycin, clindamycin, reference compound], the MIC (S. aureus MP-549 msrA; S. aureus MP-549 msrA) is reported as 0.12 µg/mL (≈ 0.282 µM), the MIC (S. aureus MP-549 msrA; [15]) is reported as 0.125 µg/mL (≈ 0.294 µM) and the MIC (E. coli armA; E. coli armA) is reported as > 128 µg/mL. For the same compound, the MIC (S. aureus BAA 977 iErmA; BAA977) was 0.12 µg/mL (≈ 0.282 µM), the MIC (S. aureus BAA 977 iErmA; BAA-977 / MRSA) was 0.125 µg/mL (≈ 0.294 µM) and the MIC (S. aureus BAA 977 iErmA; BAA-977 / MRSA, 24 h) was > 128 µg/mL. The MIC (E. coli ΔTolC; E. coli ΔTolC) was 4 µg/mL (≈ 9.41 µM), the MIC (S. aureus hVISA; S. aureus HAV#204, hVISA) was >128 µg/mL and the MIC (S. aureus hVISA; Staphylococcus aureus) was > 128 µg/mL. For the same compound, the MIC (S. pneumoniae ATCC 49619; ATCC49619, S. pneumoniae ATCC 49619, read-out: MIC) was ≤ 0.06 µg/mL, the MIC (S. pneumoniae ATCC 49619; [16]) was 0.06 µg/mL (≈ 0.141 µM) and the MIC (E. faecalis ATCC 29212; ATCC29212, E. faecalis ATCC 29212) was 16 µg/mL (≈ 37.6 µM). For the same compound, the MIC (E. faecalis ATCC 29212; [7]) was 16 µg/mL (≈ 37.6 µM), the MIC ([1]; E. faecalis MMX 847) was > 128 µg/mL and the MIC ([1]; E. faecalis MMX 847, read-out: MIC) was > 64 µg/mL. The MIC ([2]; S. aureus HAV#016, ATCC BAA-1707, MRSA) was 0.125 µg/mL (≈ 0.294 µM), the MIC ([2]; Staphylococcus aureus) was 0.125 µg/mL (≈ 0.294 µM) and the MIC [3, 9] was < 0.06 µg/mL. The MIC ([3]; S. pneumoniae MMX 3031 cMefA) was 0.06 µg/mL (≈ 0.141 µM), the MIC (K. oxytoca Clinical; K. oxytoca HAV#450, Clinical) was >128 µg/mL and the MIC (K. oxytoca Clinical; Klebsiella oxytoca) was > 128 µg/mL. The MIC (S. pneumoniae ATCC 6303; S. pneumoniae HAV#351, ATCC 6303) was 0.06 µg/mL (≈ 0.141 µM), the MIC (S. pneumoniae ATCC 6303; Streptococcus pneumoniae, ATCC6303, S. pneumoniae ATCC 6303, read-out: MIC) was 0.06 µg/mL (≈ 0.141 µM) and the MIC ([4]; S. pyogenes MMX 946) was > 128 µg/mL. The MIC ([4]; S. pyogenes MMX 946, read-out: MIC) was > 64 µg/mL, the MIC (S. aureus MMX 3035 cErmA; S. aureus MMX 3035 cErmA) was > 64 µg/mL and the MIC (K. pneumoniae ATCC 10031; ATCC10031, K. pneumoniae ATCC 10031) was 16 µg/mL (≈ 37.6 µM). The MIC (E. coli LptD; E. coli HAV#040, LptD) was 4 µg/mL (≈ 9.41 µM), the MIC (E. coli LptD; E. coli LptD) was 2 µg/mL (≈ 4.71 µM) and the MIC (E. coli ATCC 25922; ATCC25922, E. coli ATCC 25922) was > 128 µg/mL. For the same compound, the MIC (E. coli ATCC 25922; ATCC25922, E. coli ATCC 25922, read-out: MIC) was > 64 µg/mL, the MIC (E. coli ATCC 25922; ATCC25922, E. coli HAV#006, ATCC 25922) was > 128 µg/mL and the MIC (S. pyogenes ATCC 19615; ATCC19615, S. pyogenes ATCC 19615) was ≤ 0.06 µg/mL. For the same compound, the MIC (S. pyogenes ATCC 19615; [14]) was 0.06 µg/mL (≈ 0.141 µM), the MIC ([5]; S. pneumoniae MMX 3028 cErmB) was > 128 µg/mL and the MIC ([5]; S. pneumoniae MMX 3028 cErmB, read-out: MIC) was > 64 µg/mL. For the same compound, the MIC (S. aureus ATCC 700699; ATCC700699) was > 128 µg/mL and the MIC (S. aureus ATCC 700699; ATCC 700699 / VISA) was > 128 µg/mL.
